Article PMC12703741, “Light-Activated Metal-Dependent Protein Degradation: A Heterobifunctional Ruthenium(II) Photosensitizer Targeting New Delhi Metallo-β-lactamase 1” (Journal of the American Chemical Society, 2025)
Read-outs that look alike come from different tables or passages of the source.

Key:
NDM-1 [1] = target: T1, NDM-1 (Klebsiella pneumoniae, UniProt C7C422)
[2] = Chromatographic LogD measurement; details: pH 7.4
Method: ChromLogD measurements were adapted from a previously reported procedure.3 The reversed
phase HPLC measurements were measured using an Agilent 1100 Series, equipped with an
Eclipse Plus C18 column 4.6 x 50 mm, using a gradient of 50 mM ammonium acetate/CH3CN
0 – 100% over 10 min. The mobile phase was adjusted to pH = 7.4 using concentrated sodium
The retention times (log k’) of seven commercially available compounds which cover the log
D range from -0.02 to 3.18 (theophylline, 5-phenyl-1H-tetrazole, benzimidazole, colchicine,
acetophenone, indole, propiophenone, butyrophenone, and benzophenone) were calculated
using the below equation, where tR is the retention time of the compound and t0 is the column
dead time, measured by injecting uracil (0.853 min).
The average retention times (tR) of two consecutive injections of sample were used to calculate
the log k’ values, which were then used to create the standard curve (Figure S1).

[3] = Luminescence lifetime of the excited state; type: physicochemical; details: PBS
Text: 1.2.6 Luminescence lifetime
at room temperature with a Horiba Scientific FL-1065 (FluoroLog) using a pulse laser (486
nm) as the excitation source.
Lifetime of excited state (ns)

NDM-1 [4] = target: T1, NDM-1; remark: listed apart in the source
Method: 1.4.1 Differential Scanning Fluorimetry (DSF)
DSF was performed using the Applied Biosystems QuantStudio 5 thermal cycler (Thermo
Fisher Scientific). Results were analysed and Tm determined with the Applied Biosystems
Protein Thermal Shift Software v1.4 and Tm values determined by the software. DSF was
conducted in sealed MicroAmp Optical 384-Well Reaction Plates (Thermo Fisher Scientific).
at a temperature ramp rate of 0.03 °C/s. For compound-protein interaction studies, a final
containing 5X SYPRO Orange (Thermo Fisher Scientific), 50 mM HEPES and 5%(v/v)
DMSO-d6. The final reaction volume was 20 µL per well. All DMSO compound stocks used
for DSF experiments were freshly prepared from solid stocks. All DSF measurements were
carried out in triplicate and the Tm reported is the mean value and the error is the standard
deviation. For all compounds tested, a no protein control run was included to see potential
changes in fluorescence resulting from a compound-dye interaction.

NDM-1 [5] = target: T1, NDM-1; type: biochemical; details: mixture of NDM-1 and BSA, 0-1000 μM, light 450 nm, 20 J cm^-2
Method: 1.8 Protein degradation via SDS-PAGE […]
were made at 10 mM in DMSO and then diluted to the appropriate concentration (1 mM – 10 µM) in 50 mM HEPES pH 7.5. The enzyme stocks (10 µM) were made up in 50 mM HEPES pH 7.5. The compound and enzyme stocks were mixed 1:1 and then pre -incubated for 10 min […]
‘light’ conditions the samples were transferred to a 96 well plate to provide irradiation. For a […]
(208 s, 96 mW cm-2). For a dose of 60 J cm-2 the plate was irradiated immediately (624 s, 96 […]
An aliquot of each sample was mixed with SDS-sample buffer (NuPAGE® LDS Sample buffer 4x) and heated to 95°C for 3 min. The samples were loaded on to the gel (NuPAGE® 4-12% Bis-tris gel) and run at 200V/125 mA for 30 min (1 gel per Gel box) or 60 min (2 gels per Gel box). SDS-PAGE gels were imaged using a Cytiva Amersham ImageQuant™ 800.
Densitometry of gel bands was measured and processed using Fiji (ImageJ).
1.8.3 BSA+NDM-1 selectivity experiment […]
nm, 20 J cm-2). Lane 1: Ladder; Lane 2: NDM-1 – no compound control (dark); Lane 3: BSA – no compound control (dark); Lane 4: NDM-1 + BSA - no compound control (dark); Lane 5: NDM-1 + BSA + 1 eq. compound (dark); Lane 6: NDM-1 + BSA + 10 eq. compound (dark); Lane 7: NDM-1 + BSA + 100 eq. compound (dark); Lane 8: NDM-1 + BSA - no compound control (light); Lane 9: NDM-1 + BSA + 1 eq. compound (light); Lane 10: NDM-1 + BSA + 10 eq. compound (light); Lane 11: NDM-1 + BSA + 100 eq. compound (light). […]
the dark (left) and under light irradiation (450 nm, 20 J cm-2).

T1 sequence (C7C422 31-270 limits assumed): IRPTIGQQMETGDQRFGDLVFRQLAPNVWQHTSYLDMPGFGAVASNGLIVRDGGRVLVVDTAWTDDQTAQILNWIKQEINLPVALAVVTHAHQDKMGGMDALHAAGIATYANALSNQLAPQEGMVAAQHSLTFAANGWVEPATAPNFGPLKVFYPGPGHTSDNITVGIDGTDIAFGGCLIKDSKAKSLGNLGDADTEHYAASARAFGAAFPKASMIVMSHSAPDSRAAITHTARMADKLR

F[P-](F)(F)(F)(F)F.F[P-](F)(F)(F)(F)F.[Ru+2].c1ccc(-c2ccccn2)nc1.c1ccc(-c2ccccn2)nc1.c1ccc(-n2cnc3c4cccnc4c4ncccc4c32)cc1 [Ru2, [Ru(2,2'-bipyridine)2(1-phenyl-imidazo[4,5,f][1,10]phenanthroline)](PF6)2]
Fold difference in IC50(light) between Ru1 and untargeted control Ru2 (NDM-1 [1]; 450 nm, 20 J cm^-2): approximately 25 fold
IC50 (NDM-1 [1]; read-out: IC50(light), recombinant NDM-1, nitrocefin, light 450 nm, 20 J cm^-2): 5.6 ± 0.5 µM
IC50(dark) (NDM-1 [1]; recombinant NDM-1, nitrocefin, dark): no inhibition
ChromLogD [2]: 1.21
Luminescence lifetime of excited state [3]: 463 ns
Change in melting temperature (ΔT) of NDM-1 (NDM-1 [4]; compound 4 μM): 0.0 °C
Change in melting temperature (ΔT) of NDM-1 (NDM-1 [4]; compound 16 μM): 0.0 °C
Change in melting temperature (ΔT) of NDM-1 (NDM-1 [4]; compound 63 μM): 0.0 °C
Effect on melting temperature of NDM-1 (NDM-1 [4]; in words): no effect
Degradation of NDM-1 vs BSA (band intensity) (NDM-1 [5]): both NDM-1 and BSA band intensities were diminished
